In patent publication US20200157088A1, “BENZENE FUSED HETEROCYCLIC COMPOUND AND USE THEREOF” (TAIWANJ PHARMACEUTICALS CO., LTD., priority 2017, published 2020) one finds inhibition data, which are given here for 44 compounds.

This experiment deals with T1, autotaxin (Homo sapiens, UniProt Q13822).
T1 construct: purchased Cayman 10803
Put plainly: Autotaxin inhibitor screening assay (choline release from LPC). Type of experiment: biochemical. The method, then: Autotaxin activity was measured by choline release from LPC in presence or absence of compound.
Twenty (20) ng autotaxin (10803, Cayman, MI, USA) was incubated with 100 μM 14:0 LPC (855575P, Avanti, AL, USA) in a final volume of 100 μL buffer containing 50 mM Tris pH 8.0, 0.01% Triton X-100, 50 mM CaCl2, 1 unit/ml choline oxidase, 2 unit/ml HRP, 2 mM homovanilic acid (HVA). The relative amount of released choline was measured by HVA fluorescence in a 96-well plate. Fluorescent intensity was determined at λex/λem=320/450 nm every 60 seconds for 90 minutes with a SpectraMax i3 (Molecular Devices, CA, USA). Data analysis was performed using GraphPad Prism (GraphPad, La Jolla Calif., USA).
Inhibition %=[1−SlopeTA−SlopeBlank)/(Slopevehicle−SlopeBlank)]×100%

The mark [1] stands for this setting: inhibition of autotaxin enzyme activity at 1 μM compound, 100 μM 14:0 LPC, read-out: Inhibition.

Read-outs that look alike come from different tables or passages of the source.

For orientation: inhibition means the relative decrease from the control value, in per cent. Consider `CN(C(=O)OCc1cc(Cl)cc(Cl)c1)C1CCc2ccc(C3=CCN(CC(=O)N4CC(O)C4)CC3)cc21` (centres unmarked) [Compound 8, 3,5-dichlorobenzyl(6-(1-(2-(3-hydroxyazetidin-1-yl)-2-oxoethyl)-1,2,3,6-tetrahydropyridin-4-yl)-2,3-dihydro-1H-inden-1-yl)(methyl)carbamate], for which the inhibition at 1 µM under setting [1] fell in the range of 50 to 80%. Turning to `CN(C(=O)OCc1cc(Cl)cc(Cl)c1)C1CCc2ccc(C3=CCN(C(=O)CN4C(=O)CSC4=S)CC3)cc21` (centres unmarked) [Compound 9, 3,5-dichlorobenzyl methyl(6-(1-(2-(4-oxo-2-thioxothiazolidin-3-yl)acetyl)-1,2,3,6-tetrahydropyridin-4-yl)-2,3-dihydro-1H-inden-1-yl)carbamate], under setting [1], the inhibition at 1 µM was greater than 80%.

For `CN(C(=O)OCc1cc(Cl)cc(Cl)c1)C1CCc2ccc(C3=CCN(CC(=O)N4CCOCC4)CC3)cc21` (centres unmarked) [Compound 10], the inhibition at 1 µM under setting [1] fell in the range of 50 to 80%.

On to `CN(C(=O)OCc1cc(Cl)cc(Cl)c1)C1CCc2ccc(C3=CCN(CC(=O)N4CCC(=O)CC4)CC3)cc21` (centres unmarked) [Compound 11], for which the inhibition at 1 µM fell in the range of 50 to 80%. In the case of `CN(C(=O)OCc1cc(Cl)cc(Cl)c1)C1CCc2ccc(C3=CCN(CC(=O)N4CC[C@@H](O)C4)CC3)cc21` (some centres unmarked) [Compound 12], the inhibition at 1 µM under setting [1] lay in the range of 50 to 80%. On the same count and under the same terms, the result for `CN(C(=O)OCc1cc(Cl)cc(Cl)c1)C1CCc2ccc(C3=CCN(CC(=O)N4CCCC4)CC3)cc21` (centres unmarked) [Compound 13] reads less than 50%. The same measure, in the same setting: the result for `CCN(CC)C(=O)CN1CC=C(c2ccc3c(c2)C(N(C)C(=O)OCc2cc(Cl)cc(Cl)c2)CC3)CC1` (centres unmarked) [Compound 14] reads less than 50%; that for `CCOC(=O)N1CCN(C(=O)CN2CC=C(c3ccc4c(c3)C(N(C)C(=O)OCc3cc(Cl)cc(Cl)c3)CC4)CC2)CC1` (centres unmarked) [Compound 15], less than 50%.

Turning to `CN(C(=O)OCc1cc(Cl)cc(Cl)c1)C1CCc2ccc(C3=CCN(CC(=O)N4CCS(=O)(=O)CC4)CC3)cc21` (centres unmarked) [Compound 16], the inhibition at 1 µM under setting [1] lay within 50 to 80%. The same measure, in the same setting: the result for `CN(C(=O)OCc1cc(Cl)cc(Cl)c1)C1CCc2ccc(C3=CCN(CC(=O)N4CCN(S(C)(=O)=O)CC4)CC3)cc21` (centres unmarked) [Compound 17] reads 50 to 80%; that for `CN(C(=O)OCc1cc(Cl)cc(Cl)c1)C1CCc2ccc(C3=CCN(C(=O)CN4CCOCC4)CC3)cc21` (centres unmarked) [Compound 18], greater than 80%.

For `CN(C(=O)OCc1cc(Cl)cc(Cl)c1)C1CCc2ccc(C3=CCN(CC(=O)N4CCCC(O)C4)CC3)cc21` (centres unmarked) [Compound 19], the inhibition at 1 µM under setting [1] was less than 50%.

For the compound `CN(C(=O)OCc1cc(Cl)cc(Cl)c1)C1CCc2ccc(C3=CCN(CC(=O)NS(C)(=O)=O)CC3)cc21` (centres unmarked) [Compound 20], the inhibition at 1 µM under setting [1] fell in the range of 50 to 80%. The same measure, in the same setting: next, `CN(C(=O)OCc1cc(Cl)cc(Cl)c1)C1CCc2ccc(C3=CCN(CC(=O)N(C)S(C)(=O)=O)CC3)cc21` (centres unmarked) [Compound 21]: 50 to 80%; `CN(C(=O)OCc1cc(Cl)cc(Cl)c1)C1CCc2ccc(C3=CCN(C(=O)CS(C)(=O)=O)CC3)cc21` (centres unmarked) [Compound 22]: greater than 80%.

Consider `CN(C(=O)OCc1cc(Cl)cc(Cl)c1)C1CCc2ccc(C3=CCN(C(=O)C(=O)N4CCOCC4)CC3)cc21` (centres unmarked) [Compound 23], for which, under setting [1], the inhibition at 1 µM fell in the range of 50 to 80%. As for `CN(C(=O)OCc1cc(Cl)cc(Cl)c1)C1CCc2ccc(C3=CCN(C(=O)CN4CC(O)C4)CC3)cc21` (centres unmarked) [Compound 24], under setting [1], the inhibition at 1 µM was less than 50%. Still for that read-out and setting: the result for `CN(C(=O)OCc1cc(Cl)cc(Cl)c1)C1CCc2ccc(C3=CCN(C(=O)CN4CCN(S(C)(=O)=O)CC4)CC3)cc21` (centres unmarked) [Compound 25] reads greater than 80%; that for `CN(C(=O)OCc1cc(Cl)cc(Cl)c1)C1CCc2ccc(C3=CCN(C(=O)CN4C(=O)CCC4=O)CC3)cc21` (centres unmarked) [Compound 26], less than 50%. As to `CN(C(=O)OCc1cc(Cl)cc(Cl)c1)C1CCc2ccc(C3=CCN(C(=O)CN4C(=O)C=CC4=O)CC3)cc21` (centres unmarked) [Compound 27], the inhibition at 1 µM under setting [1] is greater than 80%. Still for that read-out and setting: next, `CN(C(=O)OCc1cc(Cl)cc(Cl)c1)C1CCc2ccc(C3=CCN(C(=O)CCN4C(=O)CSC4=S)CC3)cc21` (centres unmarked) [Compound 28]: 50 to 80%; `CN(C(=O)OCc1cc(Cl)cc(Cl)c1)C1CCc2ccc(C3=CCN(C(=O)CNS(C)(=O)=O)CC3)cc21` (centres unmarked) [Compound 29]: greater than 80%; `CN(C(=O)OCc1cc(Cl)cc(Cl)c1)C1CCc2ccc(C3=CCN(C(=O)CN(C)S(C)(=O)=O)CC3)cc21` (centres unmarked) [Compound 30]: greater than 80%. Still for that read-out and setting: the result for `CN(C(=O)OCc1cc(Cl)cc(Cl)c1)C1CCc2ccc(N3CCN(CC(=O)N4CC(O)C4)CC3)cc21` (centres unmarked) [Compound 33, 3,5-dichlorobenzyl (6-(4-(2-(3-hydroxyazetidin-1-yl)-2-oxoethyl)piperazin-1-yl)-2,3-dihydro-1H-inden-1-yl)(methyl)carbamate] reads 50 to 80%; that for `CN(C(=O)OCc1cc(Cl)cc(Cl)c1)C1CCc2ccc(N3CCN(C(=O)CN4CCOCC4)CC3)cc21` (centres unmarked) [Compound 34, 3,5-dichlorobenzyl methyl(6-(4-(2-morpholinoacetyl)piperazin-1-yl)-2,3-dihydro-1H-inden-1-yl)carbamate], 50 to 80%.

`CN(C(=O)OCc1cc(Cl)cc(Cl)c1)C1CCc2ccc(N3CCN(C(=O)CN4C(=O)CSC4=S)CC3)cc21` (centres unmarked) [Compound 36]: under setting [1], the inhibition at 1 µM was greater than 80%. For `CN(C(=O)OCc1cc(Cl)cc(Cl)c1)C1CCc2ccc(N3CCN(C(=O)CS(C)(=O)=O)CC3)cc21` (centres unmarked) [Compound 37], the inhibition at 1 µM under setting [1] lay in the range of 50 to 80%. For the compound `CN(C(=O)OCc1cc(Cl)cc(Cl)c1)C1CCCc2ccc(N3CCN(CC(=O)N4CC(O)C4)CC3)cc21` (centres unmarked) [Compound 38], the inhibition at 1 µM under setting [1] was less than 50%. Same read-out and setting: next, `CN(c1nc(-c2ccc(F)cc2)cs1)C1CCc2ccc(N3CCN(CC(=O)N4CC(O)C4)CC3)cc21` (centres unmarked) [Compound 43, 2-(4-(3-((4-(4-fluorophenyl)thiazol-2-yl)(methyl)amino)-2,3-dihydro-1H-inden-5-yl)piperazin-1-yl)-1-(3-hydroxyazetidin-1-yl)ethan-1-one]: less than 50%. `CN(c1nc(-c2ccccc2)cs1)C1CCc2ccc(N3CCN(CC(=O)N4CC(O)C4)CC3)cc21` (centres unmarked) [Compound 44] showed an inhibition at 1 µM of less than 50%. On to `CN(c1nc(-c2ccc(F)cc2)c(C#N)s1)C1CCc2ccc(N3CCN(CC(=O)N4CC(O)C4)CC3)cc21` (centres unmarked) [Compound 50, 4-(4-fluorophenyl)-2-((6-(4-(2-(3-hydroxyazetidin-1-yl)-2-oxoethyl)piperazin-1-yl)-2,3-dihydro-1H-inden-1-yl)(methyl)amino)thiazole-5-carbonitrile], for which the inhibition at 1 µM under setting [1] was less than 50%. `CN(c1nc(-c2ccc(Cl)cc2)c(C#N)s1)C1CCCc2ccc(N3CCN(CC(=O)N4CC(O)C4)CC3)cc21` (centres unmarked) [Compound 51] displayed an inhibition at 1 µM of less than 50%. Take `CN(c1nc(-c2ccc(Cl)cc2)c(C#N)s1)C1CCc2ccc(N3CCN(CC(=O)N4CC(O)C4)CC3)cc21` (centres unmarked) [Compound 52]: the inhibition at 1 µM under setting [1] is less than 50%. Same read-out and setting: next, `CN(c1nc(-c2ccc(F)cc2)c(C#N)s1)C1CCCc2ccc(N3CCN(CC(=O)N4CC(O)C4)CC3)cc21` (centres unmarked) [Compound 53]: less than 50%; `CN(c1nc(-c2ccc(Cl)cc2)c(C#N)s1)C1CCc2ccc(N3CCN(C(=O)CN4C(=O)CSC4=S)CC3)cc21` (centres unmarked) [Compound 54]: less than 50%; `CN(c1nc(-c2ccc(Cl)cc2)c(C#N)s1)C1CCc2ccc(C3=CCN(CC(=O)N4CC(O)C4)CC3)cc21` (centres unmarked) [Compound 58, 4-(4-chlorophenyl)-2-((6-(1-(2-(3-hydroxyazetidin-1-yl)-2-oxoethyl)-1,2,3,6-tetrahydropyridin-4-yl)-2,3-dihydro-1H-inden-1-yl)(methyl)amino)thiazole-5-carbonitrile]: less than 50%.

On to `CN(c1nc(-c2cc(Cl)cc(Cl)c2)c(C#N)s1)C1CCc2ccc(C3=CCN(CC(=O)N4CC(O)C4)CC3)cc21` (centres unmarked) [Compound 59], for which the inhibition at 1 µM under setting [1] is less than 50%. Same read-out and setting: the result for `CCC1Cc2ccc(C3=CCN(CC(=O)N4CC(O)C4)CC3)cc2C1N(C)c1nc(-c2ccc(Cl)cc2)c(C#N)s1` (centres unmarked) [Compound 60] reads less than 50%; that for `CCC1Cc2ccc(C3=CCN(CC(=O)N4CC(O)C4)CC3)cc2C1N(C)c1nc(-c2cc(Cl)cc(Cl)c2)c(C#N)s1` (centres unmarked) [Compound 61], less than 50%. `CN(C(=O)OCc1cc(Cl)cc(Cl)c1)c1coc2ccc(N3CCN(C(=O)CN4C(=O)CSC4=S)CC3)cc12` [Compound 66, 3,5-dichlorobenzyl methyl(5-(4-(2-(4-oxo-2-thioxothiazolidin-3-yl)acetyl)piperazin-1-yl)benzofuran-3-yl)carbamate]: the inhibition at 1 µM under setting [1] is greater than 80%. Still for that read-out and setting: the result for `CN(C(=O)OCc1cc(Cl)cc(Cl)c1)c1coc2ccc(C3=CCN(C(=O)CN4C(=O)CSC4=S)CC3)cc12` [Compound 69, 3,5-dichlorobenzyl methyl(5-(1-(2-(4-oxo-2-thioxothiazolidin-3-yl)acetyl)-1,2,3,6-tetrahydropyridin-4-yl)benzofuran-3-yl)carbamate] reads greater than 80%; that for `CN(CCOc1ccc(F)cc1F)C1CCc2ccc(N3CCN(CC(=O)N4CC(O)C4)CC3)cc21` (centres unmarked) [Compound 73], less than 50%.

As for `CN(CCOc1ccc(F)cc1F)C1CCCc2ccc(N3CCN(CC(=O)N4CC(O)C4)CC3)cc21` (centres unmarked) [Compound 74], the inhibition at 1 µM under setting [1] is less than 50%.

With `N#Cc1cn(Cc2coc3ccc(C4=CCN(CC(=O)N5CC(O)C5)CC4)cc23)nc1-c1ccc(Cl)cc1` [Compound 82, 3-(4-chlorophenyl)-1-((5-(1-(2-(3-hydroxyazetidin-1-yl)-2-oxoethyl)-1,2,3,6-tetrahydropyridin-4-yl)benzofuran-3-yl)methyl)-1H-pyrazole-4-carbonitrile], the inhibition at 1 µM under setting [1] is less than 50%.
